One data set deals with AMPK. Put plainly: AMPK activation (AMPKα immunoassay kit, phospho-Thr172) in MCF7 cells. In kind it is cell-based, human. More on the design: AMPK Activation 50 uM (degree of phosphorylated AMPKα Thr172): unit not given here. The note with it: 24 h; for AMPK Activation Fold: 50 uM compound vs 0 (no compound); for AMPK Activation 50 uM (degree of phosphorylated AMPKα Thr172): 50 uM compound. The procedure:
The MCF7 cells were put on a 6-well plate and incubated in a DMEM medium containing 10% fetal bovine serum in an incubator to which 5% CO2 was supplied to have a cell count of approximately 5×10^5. 50 μM of the derivatives synthesized in the examples were treated to the each culture medium, and the cells were incubated for 24 hours. Subsequently, the cells were lysed by a method presented in the operation manual of the AMPKα immunoassay kit, and 20 μg of cell lysates were yielded through protein assay.

The test system of a further data set is HCT116 cells. The experiment in a line: Inhibition of cancer cell proliferation (MTT, GIC50). In kind it is cell-based. Particulars: Homo sapiens, HCT-116, 48 h incubation. The procedure:
HCT116 cells derived from human colorectal cancer were used, and a cancer cell proliferation inhibition effect of a biguanide derivative was confirmed by measuring a concentration value (cell growth inhibition concentration, GIC50) at which cell growth was inhibited 50% using a 3-(4,5-dimethylthiazol-2-yl)-2,5-diphenyltetrazolium bromide (MTT) reagent.
First, the HCT116 cells were put on a 96-well plate and incubated for 24 hours to each have cell count of approximately 5000 in a DMEM medium containing 10% fetal bovine serum. Subsequently, to obtain the GIC50 value of each compound, 100 μM (or 200 μM), 25 μM, 6.25 μM, 1.56 μM or 0.39 μM of the compound was treated to each culture medium and then incubated for 48 hours. To confirm living cells after treatment with the compound, MTT was added to each culture medium and further incubated for 3 hours. Generated formazane crystal was dissolved using dimethyl sulfoxide (DMSO), and absorbance of the solution was measured at 560 nm. After the 48-hour incubation, a ratio of […] synthesized in the examples was indicated as cell viability (%) according to each administered concentration. A cell viability curve was plotted using the cell viability (%) and the calculated concentration value (GIC50) of the compound, at which 50% of the growth was inhibited, to confirm an effect on the inhibition of cancer cell proliferation.

As a reminder, the melting point is the temperature of the solid-liquid transition. Broadly, the IC50 is the concentration needed to halve the response being measured. On to `Cl.N=C(N)N/C(=N/c1ccc(C(F)(F)F)cc1)NCCc1ccccc1` [Example 37, N4-(4-trifluoromethyl)phenyl-N5-(phenethyl)biguanide hydrochloride], for which the melting point lay within 150 to 151 °C. In the data set with AMPK, the “AMPK Activation Fold” value is given as 4.1 and the “AMPK Activation 50 uM (degree of phosphorylated AMPKα Thr172)” value (from here on “AMPK Activation 50 uM”) was determined as 10.2. In the data set with HCT116 cells, half-maximal inhibition (IC50) was put at 12.4 µM.

For `Cl.N=C(N)N/C(=N/Cc1ccc2c(c1)OCO2)NCCc1ccccc1` [Example 39, N4-(benzo[1,3]dioxol-5-yl)methyl-N5-(phenethyl)biguanide hydrochloride], the melting point is 168 to 169 °C. Moreover, in the data set with AMPK, the “AMPK Activation Fold” value is recorded as 0.9 and the “AMPK Activation 50 uM” value was 6.4. The IC50 in the data set with HCT116 cells was above 100 µM.

For `Cl.N=C(N)N/C(=N/Cc1ccccc1)NCCc1ccccc1` [Example 40, N4-benzyl-N5-(phenethyl)biguanide hydrochloride], the melting point was 165 to 166 °C. Further, in the data set on AMPK, the “AMPK Activation Fold” value is on record as 3.9 and the “AMPK Activation 50 uM” value is listed as 20.5. The compound further yielded a concentration for half-maximal inhibition (IC50) in the data set with HCT116 cells of 85.6 µM.

`Cl.N=C(N)N/C(=N/Cc1ccc(F)cc1)NCCc1ccccc1` [Example 41, N4-(4-fluoro)benzyl-N5-(phenethyl)biguanide hydrochloride] showed a melting point of 125 to 127 °C. Moreover, in the data set with AMPK, the “AMPK Activation Fold” value amounted to 4.0 and the “AMPK Activation 50 uM” value amounted to 10.1. The compound further returned an IC50 in the data set on HCT116 cells of 42.8 µM.

`Cl.N=C(N)N/C(=N/CCc1cccs1)NCCc1ccccc1` [Example 42, N4-(thiophene-2-yl)ethyl-N5-(phenethyl)biguanide hydrochloride]: the melting point was in the range of 183 to 185 °C. Besides, in the data set on AMPK, the “AMPK Activation Fold” value was determined as 5.9 and the “AMPK Activation 50 uM” value turned out to be 31.5. Also, in the data set with HCT116 cells, the midpoint of inhibition, the IC50, lay at 76 µM.

In the case of `Cl.N=C(N)N/C(=N/CCc1ccccc1)NCCc1ccccc1` [Example 43, N4-N5-di(phenethyl)biguanide hydrochloride], the melting point was 183 to 184 °C. In the data set with AMPK, the “AMPK Activation Fold” value was 4.5 and the “AMPK Activation 50 uM” value is reported as 23.8. For the same compound, the IC50 with HCT116 cells was 70.2 µM.

Regarding `C/N=C(/NC(=N)N)N(C)Cc1ccccc1.Cl` [Example 44, N4-methyl-N5,N5-(benzyl)(methyl)biguanide hydrochloride], the melting point lay within 120 to 122 °C. In the data set with AMPK, the “AMPK Activation Fold” value is 1.9 and the “AMPK Activation 50 uM” value amounted to 12.8. The compound further gave a half-maximal inhibitory concentration (IC50) in the data set on HCT116 cells above 100 µM.

Compound `CCCC/N=C(/NC(=N)N)N(Cc1ccccc1)C(C)C.Cl` [Example 45, N4-butyl-N5,N5-(benzyl)(isopropyl)biguanide hydrochloride] gave a melting point of 170 to 171 °C. In the data set on AMPK, the “AMPK Activation Fold” value turned out to be 1.0 and the “AMPK Activation 50 uM” value came to 7.1. The compound further yielded a half-maximal inhibitory concentration (IC50) in the data set with HCT116 cells above 100 µM.

In turn, `CN(CCc1ccccc1)/C(=N\CCc1ccccc1)NC(=N)N.Cl` [Example 47, N4-(phenethyl)-N5,N5-(phenethyl)(methyl)biguanide hydrochloride] came in with a melting point of 144 to 145 °C. Further, in the data set on AMPK, the “AMPK Activation Fold” value is 1.1 and the “AMPK Activation 50 uM” value was determined as 7.2. Further, the concentration for half-maximal inhibition (IC50) in the data set with HCT116 cells was above 100 µM.

With `CCCCN(CC)/C(=N\CCc1ccccc1)NC(=N)N.Cl` [Example 48, N4-(phenethyl)-N5,N5-(butyl)(ethyl)biguanide hydrochloride], the melting point fell in the range of 228 to 229 °C. Moreover, in the data set with AMPK, the “AMPK Activation Fold” value is given as 1.0 and the “AMPK Activation 50 uM” value was determined as 6.6. The compound also registered an IC50 in the data set on HCT116 cells above 100 µM.

For the compound `CCCCCCN(CCCCCC)/C(=N\CCc1ccccc1)NC(=N)N.Cl` [Example 49, N4-(phenethyl)-N5,N5-dihexyl biguanide hydrochloride], the melting point is 138 to 140 °C. For the same compound, in the data set on AMPK, the “AMPK Activation Fold” value is on record as 5.2 and the “AMPK Activation 50 uM” value was 35.2. In the data set on HCT116 cells, this compound registered an IC50 above 100 µM.

Regarding `CCCCN(Cc1ccccc1)/C(=N\CCc1ccccc1)NC(=N)N.Cl` [Example 50, N4-(phenethyl)-N5,N5-(butyl)(benzyl)biguanide hydrochloride], the melting point lay in the range of 184 to 185 °C. For the same compound, in the data set with AMPK, the “AMPK Activation Fold” value is reported as 4.0 and the “AMPK Activation 50 uM” value was 21.4. Also, the half-inhibitory concentration (IC50) in the data set on HCT116 cells came to 59.1 µM.

Source of the values: patent US9464042B2, “Biguanide derivative, preparation method thereof, and pharmaceutical composition containing same as an active ingredient” (IMMUNOMET THERAPEUTICS INC., priority 2010, dated 2016).
